Measured values from patent US7691805B2, “Antimicrobial compounds” (Neobiotics AB, priority 2004, dated 2010).
Non-standard residues stand in square brackets, D forms with d. No end group written: not given here. dPhg = N[C@@H](C(=O)O)c1ccccc1; Phg = N[C@H](C(=O)O)c1ccccc1; code Z = not defined here; Orn = NCCC[C@H](N)C(=O)O; Mpa = O=C(O)CCS

Tests used:
bacteria = assay: Anti-bacterial activity (tables of particularly interesting compounds); format: cell-based; set-up: key: + indicates that the compound show effects
virus = assay: Anti-viral activity (tables of particularly interesting compounds); format: cell-based; set-up: key: + indicates that the compound show effects; settings: compounds listed by R4 or R1 residue
[1] = test system: Staphylococci incl. multiresistant MRSA; assay: Agar well diffusion; settings: 40 ul of 1 mg/ml in DMSO per well
[2] = test system: α-haemolytic Streptococci; assay: Agar well diffusion; settings: 40 ul of 1 mg/ml in DMSO per well
[3] = test system: CNS incl. resistant and multiresistant MRSE; assay: Agar well diffusion; settings: 40 ul of 1 mg/ml in DMSO per well
[4] = test system: HSV-1 F (Herpes Simplex Virus); assay: Antiviral inhibition analysis and plaque counting test in GMK AH 1 cells; format: cell-based; settings: 0.4 mM in 1% DMSO; analysed in the same way as Cystapep 1
poliovirus type 1 = format: cell-based; settings: 0.4 mM in 1% DMSO; analysed in the same way as Cystapep 1
Streptococcus: group B = assay: Agar well diffusion; settings: 40 ul of 1 mg/ml in DMSO per well
[5] = test system: E. coli and other Gram-negatives; assay: Agar well diffusion; settings: E. coli and other Gram-negatives; 40 ul of 1 mg/ml in DMSO per well
Streptococcus: group C = assay: Agar well diffusion; settings: 40 ul of 1 mg/ml in DMSO per well
Streptococcus: group G = assay: Agar well diffusion; settings: 40 ul of 1 mg/ml in DMSO per well
Streptococcus: group A = assay: Agar well diffusion; settings: 40 ul of 1 mg/ml in DMSO per well
S. pneumoniae = assay: Agar well diffusion; settings: 40 ul of 1 mg/ml in DMSO per well
MRSA = assay: Growth inhibition of clinical isolates; settings: approximately 100 strains of MRSA, several with additional resistance markers
[6] = peptide analogues and cyclic compounds
[7] = compounds listed by R4 or R1 residue

Molecule: cyclo(Tyr-Arg-Leu-Val-Tyr-Arg-Leu-Val) (YRLVYRLV; cyclic; printed: Tyr-Arg-Leu-Val-Tyr-Arg-Leu-Val)
- Activity Anti-bacterial (bacteria; [6]): +

Molecule: CC(C)CC(NC(=O)C(CCCNC(=N)N)NC(=O)OCc1ccccc1)C(=O)NC(CNC(=O)C#Cc1ccccc1)C(C)C (stereo not drawn) [Phenylpropiolyl]
- Activity Anti-bacterial (bacteria; [7]): +

Molecule: CC(=O)N[C@@H](Cc1ccccc1)C(=O)NCC(NC(=O)C(CC(C)C)NC(=O)C(CCCNC(=N)N)NC(=O)OCc1ccccc1)C(C)C (stereo partly drawn) [Acetyl-L-phenylalanoyl]
- Activity Anti-viral (virus): +
- Activity Anti-bacterial (bacteria; [7]): +

Molecule: CC(C)CC(NC(=O)C(CCCNC(=N)N)NC(=O)CCCc1ccccc1)C(=O)NC(CNC(=O)/C=C/c1ccccc1)C(C)C (stereo not drawn) [Compound 4-phenylbutyryl]
- Activity Anti-bacterial (bacteria; [7]): +

Molecule: CC(C)CC(NC(=O)C(CCCNC(=N)N)NC(=O)OCc1ccccc1)C(=O)NC(CNC(=O)CCl)C(C)C (stereo not drawn) [Chloroacetyl]
- Activity Anti-bacterial (bacteria; [7]): +

Molecule: cyclo(Phe-Arg-Leu-Val-Phe-Arg-Leu-Val) (FRLVFRLV; cyclic; printed: Phe-Arg-Leu-Val-Phe-Arg-Leu-Val)
- Activity Anti-bacterial (bacteria; [6]): +

Molecule: CC(C)CC(NC(=O)C(CCCNC(=N)N)NC(=O)OCc1ccccc1)C(=O)NC(CNC(=O)/C=C/c1ccccc1)C(C)C (stereo not drawn) [trans-cinnamoyl]
- Activity Anti-viral (virus): +

Molecule: Mpa-Phe-Arg-Leu-Val-Phe-Cys-NH2 ([Mpa]FRLVFC-NH2; cysteine pairing not given here) [footnote: Mpa-Phe indicates 3-phenylpropionyl]
- Activity Anti-bacterial (bacteria; [6]): +

Molecule: CC(C)CC(NC(=O)C(CCCNC(=N)N)NC(=O)OCc1ccccc1)C(=O)NC(CNC(=O)/C=C/c1ccccc1)C(C)C (stereo not drawn) [Benzyloxtcarbonyl]
- Activity Anti-bacterial (bacteria; [7]): +

Molecule: cyclo(F[Orn]LVF[Orn]LV)
- Activity Anti-bacterial (bacteria; [6]): +

Molecule: CC(C)CC(NC(=O)C(CCCNC(=N)N)NC(=O)OCc1ccccc1)C(=O)NC(CNC(=O)[C@H](O)Cc1ccccc1)C(C)C (stereo partly drawn) [Compound D-2-hydroxy-3-phenylpropionyl]
- Activity Anti-bacterial (bacteria; [7]): +

Molecule: CC(C)CC(NC(=O)C(CCCNC(=N)N)NC(=O)Cc1ccccc1)C(=O)NC(CNC(=O)/C=C/c1ccccc1)C(C)C (stereo not drawn) [Phenylacetyl]
- Activity Anti-bacterial (bacteria; [7]): +

Molecule: CC(C)CC(NC(=O)C(CCCNC(=N)N)NC(=O)OCc1ccccc1)C(=O)NC(CNC(=O)/C=C/Cc1ccccc1)C(C)C (stereo not drawn) [trans-3-benzylacroyl]
- Activity Anti-bacterial (bacteria; [7]): +

Molecule: CC(C)CC(CNC(=O)/C=C/c1ccccc1)NC(=O)C(CC(C)C)NC(=O)C(CCCNC(=N)N)NC(=O)OCc1ccccc1 (stereo not drawn) [(Leu^4)Cp1]
- antibacterial effect [1]: +
- antibacterial effect [2]: −
- antibacterial effect [3]: +
- effect against HSV-1 [4]: found to have effect
- effect against polio (poliovirus type 1): found to have effect
- antibacterial effect (Streptococcus: group B): +
- antibacterial effect [5]: −
- antibacterial effect (Streptococcus: group C): +
- antibacterial effect (Streptococcus: group G): +
- antibacterial effect (Streptococcus: group A): +
- antibacterial effect (S. pneumoniae): +
- growth inhibition of MRSA strains (MRSA): strongly inhibited in their growth

Molecule: CC(C)CC(NC(=O)C(CCCNC(=N)N)NC(=O)OCc1ccccc1)C(=O)NC(CNC(=O)[C@@H](Br)Cc1ccccc1)C(C)C (stereo partly drawn) [Compound L-2-bromo-3-phenylpropionyl]
- Activity Anti-bacterial (bacteria; [7]): +

Molecule: CC(C)CC(NC(=O)C(CCCNC(=N)N)NC(=O)OCc1ccccc1)C(=O)NC(CNC(=O)[C@@H](O)Cc1ccccc1)C(C)C (stereo partly drawn) [Compound L-2-hydroxy-3-phenylpropionyl]
- Activity Anti-bacterial (bacteria; [7]): +

Molecule: cyclo([dPhg]RLV[dPhg]RLV)
- Activity Anti-bacterial (bacteria; [6]): +

Molecule: CC(C)CC(NC(=O)C(CCCNC(=N)N)NC(=O)OCc1ccccc1)C(=O)NC(CNC(=O)CCc1ccccc1)C(C)C (stereo not drawn) [n = 2]
- Activity Anti-bacterial (bacteria; [7]): +

Molecule: Z-Arg-Leu-Val-cinnamoylamide
- Activity Anti-bacterial (bacteria; [6]): +

Molecule: CC(=O)NC(CCCNC(=N)N)C(=O)NC(CC(C)C)C(=O)NC(CNC(=O)/C=C/c1ccccc1)C(C)C (stereo not drawn) [Acetyl]
- Activity Anti-bacterial (bacteria; [7]): +

Molecule: CC(C)CC(NC(=O)C(CCCNC(=N)N)NC(=O)OCc1ccccc1)C(=O)NC(CNC(=O)/C=C/c1ccccc1)Cc1ccccc1 (stereo not drawn) [(Phe^4)Cp1]
- antibacterial effect [1]: +
- antibacterial effect [2]: −
- antibacterial effect [3]: +
- effect against HSV-1 [4]: found to have effect
- effect against polio (poliovirus type 1): found to have effect
- antibacterial effect (Streptococcus: group B): +
- antibacterial effect [5]: −
- antibacterial effect (Streptococcus: group C): +
- antibacterial effect (Streptococcus: group G): +
- antibacterial effect (Streptococcus: group A): +
- antibacterial effect (S. pneumoniae): +
- growth inhibition of MRSA strains (MRSA): strongly inhibited in their growth

Molecule: CC(C)CC(NC(=O)C(CCCNC(=N)N)NC(=O)OCc1ccccc1)C(=O)NC(CNC(=O)C=CC=Cc1ccccc1)C(C)C (stereo not drawn) [5-phenylpenta-2,4-dienoyl]
- Activity Anti-bacterial (bacteria; [7]): +

Molecule: CC(C)CC(NC(=O)C(CCCNC(=N)N)NC(=O)OCc1ccccc1)C(=O)NC(CNC(=O)[C@H](Br)Cc1ccccc1)C(C)C (stereo partly drawn) [Compound D-2-bromo-3-phenylpropionyl]
- Activity Anti-bacterial (bacteria; [7]): +

Molecule: CC(C)CC(NC(=O)C(CCCNC(=N)N)NC(=O)OCc1ccccc1)C(=O)NC(CNC(=O)C=Cc1ccc(-c2ccccc2)cc1)C(C)C (stereo not drawn) [Compound 4-phenylcinnamoyl]
- Activity Anti-bacterial (bacteria; [7]): +

Molecule: Z-Arg-Leu-Val-Phe-NH2 ({code Z}-RLVF-NH2; reading uncertain; also: printed as Z-Arg-Leu-Val-Phe-NH2)
- Activity Anti-bacterial (bacteria; [6]): +

Molecule: cyclo([Phg]RLV[Phg]RLV)
- Activity Anti-bacterial (bacteria; [6]): +

Molecule: CC(C)CC(NC(=O)C(CCCNC(=N)N)NC(=O)OCc1ccccc1)C(=O)NC(CNC(=O)/C=C/S(=O)(=O)Cc1ccccc1)C(C)C (stereo not drawn) [trans-3-benzylsulphonylacroyl]
- Activity Anti-bacterial (bacteria; [7]): +

Molecule: CC(C)CC(NC(=O)C(CCCNC(=N)N)NC(=O)OCc1ccccc1)C(=O)NC(CNC(=O)Cc1ccccc1)C(C)C (stereo not drawn) [n = 1]
- Activity Anti-bacterial (bacteria; [7]): +

Molecule: CC(C)C(CNC(=O)/C=C/c1ccccc1)NC(=O)CNC(=O)C(CCCNC(=N)N)NC(=O)OCc1ccccc1 (stereo not drawn) [(Gly^3)Cp1]
- antibacterial effect [1]: +
- antibacterial effect [2]: −
- antibacterial effect [3]: +
- antibacterial effect (Streptococcus: group B): +
- antibacterial effect (Streptococcus: group C): +
- growth inhibition of MRSA strains (MRSA): strongly inhibited in their growth

Molecule: cyclo(FRLVF[Orn]LV)
- Activity Anti-bacterial (bacteria; [6]): +

Molecule: CC(C)CC(NC(=O)C(CCCNC(=N)N)NC(=O)CCc1ccccc1)C(=O)NC(CNC(=O)/C=C/c1ccccc1)C(C)C (stereo not drawn) [Compound 3-phenylpropionyl]
- Activity Anti-bacterial (bacteria; [7]): +

Molecule: cyclo(D-Tyr-Arg-Leu-Val-D-Tyr-Arg-Leu-Val) (chain 1 [dY]RLV; chain 2 [dY]RLV; also: two chains joined into one cyclic octapeptide, head-to-tail to a chain's N/C-terminus)
- Activity Anti-bacterial (bacteria; [6]): +

Molecule: CC(=O)N[C@H](Cc1ccccc1)C(=O)NCC(NC(=O)C(CC(C)C)NC(=O)C(CCCNC(=N)N)NC(=O)OCc1ccccc1)C(C)C (stereo partly drawn) [Acetyl-D-phenylalanoyl]
- Activity Anti-viral (virus): +
- Activity Anti-bacterial (bacteria; [7]): +

Molecule: C=C(C(=O)NCC(NC(=O)C(CC(C)C)NC(=O)C(CCCNC(=N)N)NC(=O)OCc1ccccc1)C(C)C)c1ccncc1 (stereo not drawn) [2-(4-pyridyl)acroyl]
- Activity Anti-bacterial (bacteria; [7]): +
